Broadly, the IC50 is the point on the concentration scale where inhibition reaches its midpoint.

A value given as a limit tells only on which side of the number the result lay.

In the assay the target is interaction of human SOS1 (SOS1) with human K-RasG12C (Homo sapiens (Human), UniProt Q07889). Description: Biochemical assay: hK-RasG12C interaction assay with hSOS1 (HTRF). The assay is classed as binding. To be noted: GST-hK-RasG12C with His-hSOS1, 60 min incubation at 20° C., mean, read-out: K-RasG12C - SOS interaction assay IC50 (mean). As to the method: Biochemical Assay: hK-RasG12C Interaction Assay with hSOS1 This assay quantifies the equilibrium interaction of human SOS1 (SOS1) with human K-Ras^G12^C (K-RasG12C). Detection of the interaction is achieved by measuring homogenous time-resolved fluorescence resonance energy transfer (HTRF) from antiGST-Europium (FRET donor) bound to GST-K-RasG12C to anti-6His-XL665 bound to His-tagged hSOS1 (FRET-acceptor). The assay buffer containes 5 mM HEPES pH 7.4 (Applichem), 150 mM NaCl (Sigma), […] (Promega), 1 mM DTT (Thermofisher), 0.05% BSA Fraction V, pH 7.0, (ICN Biomedicals), 0.0025% (v/v) Igepal (Sigma) and 100 mM KF (FLUKA). The expression and purification of N-terminally GST-tagged human K-RasG12C (termed GST-hK-RasG12C) and N-terminally His-tagged human SOS1 (termed His10-hSOS1) is described in WO 2019/201848, page 220 line 12-34 and page 222, line 13-25 (expression) and page 222, line 26 to page 223, line 17 (purification). Concentrations of protein batches used are optimized to be within the linear range of the HTRF signal. A Ras working solution is prepared in assay buffer containing typically 10 nM GST-hK-RasG12C and 2 nM antiGST-Eu(K) (Cisbio, France). A SOS1 working solution is prepared in assay buffer containing typically 20 nM His-hSOS1 and 10 nM anti-6His-XL665 (Cisbio, France). An inhibitor control solution is prepared in assay buffer containing nM anti-6His-XL665 without SOS1. Fifty nl of a 100-fold concentrated solution of the test compound in DMSO are transferred into a black microtiter test plate (384 or 1536, Greiner Bio-One, Germany). For this, either a Hummingbird liquid handler (Digilab, MA, USA) or an Echo acoustic system (Labcyte, CA, USA) is used. All steps of the assay are performed at 20° C. A volume of 2.5 μl of the Ras working solution is added to all wells of the test plate using a Multidrop dispenser (Thermo Labsystems). After 2 min preincubation, 2.5 μl of the SOS1 working solution are added to all wells except for those wells at the side of the test plate that are subsequently filled with 2.5 μl of the inhibitor control solution. After 60 min incubation the fluorescence is measured with a Pherastar (BMG, Germany) using the HTRF module (excitation 337 nm, emission 1: 620 nm, emission 2: 665 nm). The ratiometric data (emission 2 divided by emission 1) are normalized using the controls (DMSO=0% inhibition, inhibition control wells with inhibitor control solution=100% inhibition). Compounds are tested in duplicates at up to 11 concentrations (for 20 μM, 5,7 μM, 1,6 μM, 0.47 μM, 0.13 μM, 38 nM, 11 nM, 3.1 nM, 0.89 nM, 0.25 nM and 0.073 nM). IC50 values are calculated by 4-Parameter fitting using a commercial software package (Genedata Screener, Switzerland).
Chain of interaction of human SOS1 (SOS1) with human K-RasG12C (Q07889 564-1049 limits assumed): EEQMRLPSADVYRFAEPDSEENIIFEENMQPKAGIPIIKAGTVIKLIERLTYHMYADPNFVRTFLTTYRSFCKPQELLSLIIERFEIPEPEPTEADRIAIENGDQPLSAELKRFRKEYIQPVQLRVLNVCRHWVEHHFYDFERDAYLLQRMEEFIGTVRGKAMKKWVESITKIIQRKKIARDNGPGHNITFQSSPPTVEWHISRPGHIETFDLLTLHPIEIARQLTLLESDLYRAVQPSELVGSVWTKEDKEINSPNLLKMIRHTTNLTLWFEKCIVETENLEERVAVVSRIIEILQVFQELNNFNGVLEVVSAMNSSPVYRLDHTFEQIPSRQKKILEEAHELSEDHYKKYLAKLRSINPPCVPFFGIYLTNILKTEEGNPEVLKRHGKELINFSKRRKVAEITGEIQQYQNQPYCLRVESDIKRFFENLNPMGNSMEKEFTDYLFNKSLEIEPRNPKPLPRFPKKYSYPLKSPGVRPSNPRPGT
(Time-resolved FRET reads energy transfer from a long-lived donor to a nearby acceptor.)
As for `CCCCC(C)(O)C(F)(F)c1cccc([C@@H](C)Nc2nc(C)nc3cnc(P(C)(C)=O)cc23)c1F` (mixture of isomers) [Example 23, (2RS)-1-{3-[(1R)-1-{[6-(dimethylphosphoryl)-2-methylpyrido[3,4-d]pyrimidin-4-yl]amino}ethyl]-2-fluorophenyl}-1,1-difluoro-2-methylhexan-2-ol], the IC50 was found to be 12.4 nM.

With `CCc1nc(P(C)(C)=O)cc2c(N[C@H](C)c3cccc(C(F)(F)C(O)CC)c3F)nc(C)nc12` (mixture of isomers) [Example 38, (2RS)-1-{3-[(1R)-1-{[6-(dimethylphosphoryl)-8-ethyl-2-methylpyrido[3,4-d]pyrimidin-4-yl]amino}ethyl]-2-fluorophenyl}-1,1-difluorobutan-2-ol], the IC50 was found to be 10.7 nM.

Turning to `Cc1nc(N[C@H](C)c2cccc(C(F)(F)[C@@H](C)O)c2F)c2cc(P(C)(C)=O)ncc2n1` (relative stereo) [Example 113, (2R*)-1-{3-[(1R)-1-{[6-(dimethylphosphoryl)-2-methylpyrido[3,4-d]pyrimidin-4-yl]amino}ethyl]-2-fluorophenyl}-1,1-difluoropropan-2-ol], the IC50 turned out to be 7.85 nM.

For `Cc1nc(N[C@H](C)c2cccc(C(F)(F)[C@H](O)C(C)(C)C)c2F)c2cc(P(C)(C)=O)ncc2n1` (relative stereo) [Example 137, (2R*)-1-{3-[(1R)-1-{[6-(dimethylphosphoryl)-2-methylpyrido[3,4-d]pyrimidin-4-yl]amino}ethyl]-2-fluorophenyl}-1,1-difluoro-3,3-dimethylbutan-2-ol], the concentration for half-maximal inhibition (IC50) was 4.04 nM.

In the case of `Cc1nc(NC(C)c2ccnc(C(F)(F)F)c2)c2cc(P(C)(C)=O)ncc2n1` (single isomer, unassigned) [Example 24, 6-(dimethylphosphoryl)-2-methyl-N-{1-[2-(trifluoromethyl)pyridin-4-yl]ethyl}pyrido[3,4-d]pyrimidin-4-amine], the IC50 is above 20000 nM.

Turning to `Cc1nc(NC(C)c2ccnc(C(F)(F)F)c2)c2cc(P(C)(C)=O)ncc2n1` (single isomer, unassigned) [Example 25, 6-(dimethylphosphoryl)-2-methyl-N-{1-[2-(trifluoromethyl)pyridin-4-yl]ethyl}pyrido[3,4-d]pyrimidin-4-amine], the IC50 turned out to be 4850 nM.

Take `CCC(O)C(F)(F)c1cccc([C@@H](C)Nc2nc(C)nc3cnc(P(C)(C)=O)cc23)c1F` (single isomer, unassigned) [Example 65, (2R*)-1-{3-[(1R)-1-{[6-(dimethylphosphoryl)-2-methylpyrido[3,4-d]pyrimidin-4-yl]amino}ethyl]-2-fluorophenyl}-1,1-difluorobutan-2-ol]: the 50% inhibitory concentration (IC50) was 10.5 nM.

Turning to `Cc1nc(N[C@H](C)c2cccc(C(F)(F)C(O)C(C)C)c2F)c2cc(P(C)(C)=O)ncc2n1` (single isomer, unassigned) [Example 66, (2R*)-1-{3-[(1R)-1-{[6-(dimethylphosphoryl)-2-methylpyrido[3,4-d]pyrimidin-4-yl]amino}ethyl]-2-fluorophenyl}-1,1-difluoro-3-methylbutan-2-ol], the IC50 worked out at 25.1 nM.

Regarding `CCP(C)(=O)c1cc2c(N[C@H](C)c3cccc(C(F)(F)C(C)(C)O)c3F)nc(C)nc2cn1` (single isomer, unassigned) [Example 68], the IC50 came out at 28.2 nM.

As to `CCP(C)(=O)c1cc2c(N[C@H](C)c3cccc(C(F)(F)C(C)(C)O)c3F)nc(C)nc2cn1` (single isomer, unassigned) [Example 69], the concentration for half-maximal inhibition (IC50) worked out at 19.5 nM.

Turning to `Cc1nc(N[C@H](C)c2cccc(C(F)(F)C(C)(C)O)c2F)c2cc(P(C)(=O)C(C)C)ncc2n1` (single isomer, unassigned) [Example 71], the IC50 was 35.4 nM.

With `Cc1nc(N[C@H](C)c2cccc(C(F)(F)C(C)(C)O)c2F)c2cc(P(C)(=O)C(C)C)ncc2n1` (single isomer, unassigned) [Example 72], the IC50 came to 24.3 nM.

Turning to `CCP(C)(=O)c1cc2c(N[C@H](C)c3cccc(C(F)(F)C(C)O)c3F)nc(C)nc2cn1` (single isomer, unassigned) [Example 73, (2R*)-1-{3-[(1R)-1-{{6-[ethyl(methyl)phosphoryl]-2-methylpyrido[3,4-d]pyrimidin-4-yl}amino)ethyl]-2-fluorophenyl}-1,1-difluoropropan-2-ol], the IC50 worked out at 11.3 nM.

Take `CCP(C)(=O)c1cc2c(N[C@H](C)c3cccc(C(F)(F)C(C)O)c3F)nc(C)nc2cn1` (single isomer, unassigned) [Example 74, (2R*)-1-{3-[(1R)-1-{{6-[ethyl(methyl)phosphoryl]-2-methylpyrido[3,4-d]pyrimidin-4-yl}amino)ethyl]-2-fluorophenyl}-1,1-difluoropropan-2-ol]: the IC50 is 24.6 nM.

In the case of `CCP(C)(=O)c1cc2c(N[C@H](C)c3cccc(C(F)(F)C(C)O)c3F)nc(C)nc2cn1` (single isomer, unassigned) [Example 75, (2R*)-1-{3-[(1R)-1-{{6-[ethyl(methyl)phosphoryl]-2-methylpyrido[3,4-d]pyrimidin-4-yl}amino)ethyl]-2-fluorophenyl}-1,1-difluoropropan-2-ol], the IC50 is 15.3 nM.

`CCP(C)(=O)c1cc2c(N[C@H](C)c3cccc(C(F)(F)C(C)O)c3F)nc(C)nc2cn1` (single isomer, unassigned) [Example 76, (2R*)-1-{3-[(1R)-1-({6-[ethyl(methyl)phosphoryl]-2-methylpyrido[3,4-d]pyrimidin-4-yl}amino)ethyl]-2-fluorophenyl}-1,1-difluoropropan-2-ol]: the half-maximal inhibitory concentration (IC50) was 21.3 nM.

`CCP(C)(=O)c1cc2c(N[C@H](C)c3cccc(C(F)(F)C(C)O)c3F)nc(C)nc2cn1` (single isomer, unassigned) [Example 77, (2R*)-1-{3-[(1R)-1-{{6-[ethyl(methyl)phosphoryl]-2-methylpyrido[3,4-d]pyrimidin-4-yl}amino)ethyl]-2-fluorophenyl}-1,1-difluoropropan-2-ol]: the IC50 turned out to be 17.8 nM.

With `CCP(C)(=O)c1cc2c(N[C@H](C)c3cccc(C(F)(F)C(C)O)c3F)nc(C)nc2cn1` (single isomer, unassigned) [Example 78, (2R*)-1-{3-[(1R)-1-{{6-[ethyl(methyl)phosphoryl]-2-methylpyrido[3,4-d]pyrimidin-4-yl}amino)ethyl]-2-fluorophenyl}-1,1-difluoropropan-2-ol], the IC50 amounted to 21.8 nM.

For `Cc1nc(N[C@H](C)c2cccc(C(F)(F)C(C)O)c2F)c2cc(P(C)(=O)C(C)C)ncc2n1` (single isomer, unassigned) [Example 79, (2R*)-1,1-difluoro-1-{2-fluoro-3-[(1R)-1-({2-methyl-6-[methyl(propan-2-yl)phosphoryl]pyrido[3,4-d]pyrimidin-4-yl}amino)ethyl]phenyl}propan-2-ol], the half-inhibitory concentration (IC50) amounted to 12.3 nM.

Regarding `Cc1nc(N[C@H](C)c2cccc(C(F)(F)C(C)O)c2F)c2cc(P(C)(=O)C(C)C)ncc2n1` (single isomer, unassigned) [Example 80, (2R*)-1,1-difluoro-1-{2-fluoro-3-[(1R)-1-({2-methyl-6-[methyl(propan-2-yl)phosphoryl]pyrido[3,4-d]pyrimidin-4-yl}amino)ethyl]phenyl}propan-2-ol], the half-maximal inhibitory concentration (IC50) stood at 5.88 nM.

Take `Cc1nc(N[C@H](C)c2cccc(C(F)(F)C(C)O)c2F)c2cc(P(C)(=O)C(C)C)ncc2n1` (single isomer, unassigned) [Example 81, (2R*)-1,1-difluoro-1-{2-fluoro-3-[(1R)-1-({2-methyl-6-[methyl(propan-2-yl)phosphoryl]pyrido[3,4-d]pyrimidin-4-yl}amino)ethyl]phenyl}propan-2-ol]: the IC50 worked out at 10.2 nM.

Take `Cc1nc(N[C@H](C)c2cccc(C(F)(F)C(C)O)c2F)c2cc(P(C)(=O)C(C)C)ncc2n1` (single isomer, unassigned) [Example 82, (2R*)-1,1-difluoro-1-{2-fluoro-3-[(1R)-1-({2-methyl-6-[methyl(propan-2-yl)phosphoryl]pyrido[3,4-d]pyrimidin-4-yl}amino)ethyl]phenyl}propan-2-ol]: the half-inhibitory concentration (IC50) came out at 24.5 nM.

Values taken from patent US20240247015A1, “PHOSPHORUS DERIVATIVES AS NOVEL SOS1 INHIBITORS” (BAYER AKTIENGESELLSCHAFT, priority 2021, published 2024).
